Results as given in ChEMBL document CHEMBL3399988, “Ritonavir-boosted indinavir but not lopinavir inhibits erythrocytic stage Plasmodium knowlesi malaria in rhesus macaques” (Bioorg Med Chem Lett, 2015).
Active and inactive are the calls of the source. The calls are words filed in the database; no cut-off is given here.

Assays:
[1] = test system: Plasmodium knowlesi; assay: Antimalarial activity against Plasmodium knowlesi infected Chinese rhesus macaques assessed as parasitemia level in blood smears at 40 mg/kg, intragastric treated 5 days before infection measured between day 0 to 7 by Giemsa-staining in presence of ritonavir 10 mg/kg, intragastric once daily; type: functional, organism-based
[2] = test system: Plasmodium knowlesi; assay: Antimalarial activity against Plasmodium knowlesi infected Chinese rhesus macaques assessed as parasitemia level in blood smears at 40 mg/kg, intragastric treated 5 days before infection measured between day 0 to 7 by Giemsa-staining in presence of ritonavir 5 mg/kg, intragastric twice daily; type: functional, organism-based

With `Cc1cccc(C)c1OCC(=O)N[C@@H](Cc1ccccc1)[C@@H](O)C[C@H](Cc1ccccc1)NC(=O)[C@H](C(C)C)N1CCCNC1=O` the inhibition [1] was “inactive”.

In the case of `CC(C)(C)NC(=O)[C@@H]1CN(Cc2cccnc2)CCN1C[C@@H](O)C[C@@H](Cc1ccccc1)C(=O)N[C@H]1c2ccccc2C[C@H]1O`, the inhibition [2] is reported as “Active”.
